Where only a bound is given, the exact number is not on record here.

Assay [1] addresses T1, full-length 6x-His-tagged human G3BP1 (Homo sapiens, UniProt Q13283).
T1 construct: 10 nM full-length 6x-His-tagged human G3BP1; made in house; host or cells: E. coli BL21 (DE3)
The assay can be described thus: Peptide displacement assay (Pep-FRET). In kind it is binding. The conditions noted are these: for IC50: displacement of FAM-labeled peptide probe, 60 min, room temperature; for displacement of FAM-labeled FGDF peptide from G3BP1: result in words, Fig. 1 C. How it is done: Peptide displacement assays were performed in 20 μl total volume at 25°C at pH 7.4 in buffer containing 20 mM Tris-HCl, pH 7.5, 100 mM NaCl, 0.01% bovine serum albumin, 1 mM DTT, and 0.005% Tween-20. 10 nM full-length 6x-His-tagged human G3BP1 was added to the reaction mix containing the test compound and 0.5 nM anti-His-Tb antibody (PerkinElmer). […] Assay plates were shaken for 30 s, then centrifuged for 30 s, and then incubated at room temperature for 60 min. Data were read on an EnVision Multilabel plate reader at 495/520 nm. HTRF ratios were calculated as described by PerkinElmer and IC50s were calculated using GraphPad Prism 9 software and the [Inhibitor] versus Response—Variable Slope (four parameter) fit equation.

Assay [2] relates to stress granule formation in U2OS cells stably expressing G3BP1-GFP. The assay can be described thus: Preincubation, arsenite-induced stress granule formation, live cell imaging in U2OS. The assay is classed as cell-based. As to conditions: for reduction of total stress granule area / reduction of stress granule formation compared with inactive enantiomer: 20 min pretreatment; for reduction of total stress granule area / stress granule formation: 500 μM NaAsO2; for reduction of stress granule formation compared with inactive enantiomer: 250 μM NaAsO2; for stress granule formation: any tested dose (5, 20, 50 μM). Here is the method: For preincubation of compounds, U2OS or HeLa cells stably expressing G3BP1-GFP or CRISPR-modified cells expressing TDP-43-GFP/G3BP1-GFP were seeded into eight-well Lab-Tek chambered cover glass (Nunc). […] This solution was vortexed for 5 s, added to the cells at 250 μl per well, and left to incubate on the microscope for 20 min. Conditions were maintained at 37°C and 5% CO2 using a Bold Line Cage Incubator (Okolab) and an objective heater (Bioptechs). During this incubation time, 5 xy fields were stored per condition, with each field having ∼20–30 cells within it. After the 20-min incubation, 250 μl of 500 μM or 1 mM (2×) sodium arsenite (Sigma-Aldrich) diluted in the FluoroBrite media with an appropriate amount of G3I compound or DMSO was added to the sample. Imaging began immediately after, with images at each xy field being taken every 1 min. For heat shock experiments, U2OS G3BP1-GFP-expressing cells were seeded into a 35-mm glass bottom dish (MatTek). Prior to the experiment, 1.5 ml FluoroBrite DMEM media (Gibco) supplemented with 10% FBS and 4 mM L-glutamine was combined with 0.1% DMSO or 50 μM G3I compound. The sample was incubated on the environmentally controlled microscope for 20 min. During this incubation time, 10 xy fields were stored per condition. After the 20-min incubation, acquisition began with each xy position being imaged every 30 s. 2 min into the acquisition, the objective heater was ramped to 43°C and maintained this temperature until ramped back down to 37°C at 32 min into the acquisition. All imaging was acquired on a Yokogawa CSU W1 spinning disk attached to a Nikon Ti2 eclipse with a Photometrics Prime 95B camera using Nikon Elements software (v5.20.00 to v5.21.02). Imaging was performed through a Nikon Plan Apo 60× 1.40 NA oil objective with Immersol 518 F (refractive index 1.518; Zeiss), and Perfect Focus 2.0 (Nikon) was engaged for all captures.
Automated granule detection and measurement were performed using a combination of ilastik and CellProfiler software. Briefly, ND2 multipoint timelapse files were resaved as image sequences in Fiji with the Bio-Formats plugin so that individual frames of the movies could be treated as individual images for analysis. From there, pixel classification in ilastik was used to segment both stress granules and the total cellular area within the field using the G3BP1-GFP channel via machine learning. These segmentations, along with the original G3BP1-GFP image, were input into CellProfiler, where objects were defined using the masks from ilastik.

The subject of assay [3] is G3BP1- and FUS R495X-positive puncta in U2OS cells with tdTomato-tagged endogenous G3BP1. The assay can be described thus: Dissolution of puncta induced by FUS R495X expression. The assay is classed as cell-based. As to conditions: for G3BP1 puncta eliminated / reduction in number of puncta positive for FUS R495X: FUS R495X-transfected cells, 50 μM for 30 min; for extraction of FUS R495X from granules: result in words. Here is the method:
U2OS cells with knock-in of G3BP1-tdTomato ([Yang et al., 2020]) were seeded into 96-well plates (3904; Corning). Either GFP-VCP-A232E or GFP-FUS-R495X were transfected into cells using ViaFect transfection reagent (Promega) 24 h prior to the start of the experiment. For samples to be treated with compounds G3Ia or G3Ia′, Hoechst (1:5,000; Biotium) was added and incubated for 30 min prior to the start of the experiment, washed once with PBS, and the media was changed to 100 μl FluoroBrite DMEM media (Gibco) upon starting the experiment. Imaging of plates was performed on a Cytation C10 spinning disk confocal (BioTek) with a Hamamatsu Orca-Flash 4.0 camera using Gen5 software (version 3.11). Imaging was performed through an Olympus Plan Apo 40× 0.6 NA dry objective with an adjustable collar set to 0.5 μm thickness. Laser autofocus prior to imaging the tdTomato channel was utilized for each image. The temperature was maintained at 37°C on the instrument and the cells were supplied with 5% CO2. A 7 × 7 tilescan was taken at the center of each well, capturing the tdTomato and GFP channels (and Hoechst when present). After completing the tilescan, 100 μl FluoroBrite with 100 μM (2×) G3I compound (vortexed for 5 s) was added to each well and incubated for 20 min before starting another round of imaging in the same locations as the first round. Samples treated with G3Ib or G3Ib′ were analyzed manually, scoring each cell with spontaneous granules for the presence or absence of granules following treatment with the compound. For experiments in which G3I compounds were pretreated prior to transfection, 50 μM of indicated compound or vehicle control were added to U2OS cells 20 min prior to the addition of the transfection reagent. After 24 h of transfection, the cells were washed with PBS, fixed in 4% formaldehyde, and incubated with Hoechst (1:5,000; Biotium) in PBS for 30 min prior to the start of the experiment, washed once with PBS, and at room temperature imaging on the Cytation C10 spinning disk confocal was performed as described above.
Samples treated with G3Ia or G3Ia′ were analyzed using an automated pipeline. Segmentation was performed in both ilastik and Cellpose 2.0. Nuclear segmentation using the Hoechst channel and granule segmentation in both GFP and tdTomato channels was performed via pixel classification in ilastik using small cropped portions of the tilescan as the training dataset for each. Individual cell segmentation was performed in Cellpose 2.0 by inputting a merged RGB of the Hoechst and G3BP1-tdTomato channels. The Cellpose output was then eroded by one pixel and set as a binary mask in Fiji. The original three raw channels, three output masks from ilastik, and the one mask generated from Cellpose were all inputted into CellProfiler to generate per-cell measurements for granules as defined by GFP or tdTomato.

T1 sequence (Q13283 whole entry): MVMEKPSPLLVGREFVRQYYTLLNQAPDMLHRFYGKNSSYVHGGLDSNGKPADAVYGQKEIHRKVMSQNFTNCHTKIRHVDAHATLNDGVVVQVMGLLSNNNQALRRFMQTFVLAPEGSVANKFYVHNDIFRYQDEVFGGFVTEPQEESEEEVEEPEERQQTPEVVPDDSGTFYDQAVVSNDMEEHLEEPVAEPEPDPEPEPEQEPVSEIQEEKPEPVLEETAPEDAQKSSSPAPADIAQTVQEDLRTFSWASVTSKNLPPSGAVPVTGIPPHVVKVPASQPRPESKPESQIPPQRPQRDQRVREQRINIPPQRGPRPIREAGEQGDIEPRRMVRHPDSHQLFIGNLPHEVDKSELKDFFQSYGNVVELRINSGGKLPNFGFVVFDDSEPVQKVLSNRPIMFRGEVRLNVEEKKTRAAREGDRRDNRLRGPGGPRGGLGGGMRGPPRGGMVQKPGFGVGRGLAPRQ

On to `COCCC(NC(=O)C(C)NC(=O)C(NC(=O)C(NC(=O)C(F)CC(C)(C)C)C(C)(C)O)C(C)c1ccccc1)C(=O)N(C)Cc1ccccc1` (stereo not drawn) [G3Ia], for which, in assay [1], the IC50 worked out at 1.5 µM and the “displacement of FAM-labeled FGDF peptide from G3BP1” value (“displacement” for short) is listed as “potently displaced”. Besides, the “reduction of total stress granule area” value in assay [2] (5 μM) was about 36%. The “reduction of total stress granule area” value in assay [2] (20 μM) was about 59%. For the same molecule, in assay [2] (50 μM), the “reduction of stress granule formation compared with inactive enantiomer” value was about 86% and the “reduction of total stress granule area” value is about 80%. In assay [3], the G3BP1 puncta eliminated amounted to 92%, the “reduction in number of puncta positive for FUS R495X” value was determined as 3% and the “extraction of FUS R495X from granules” value is reported as “unable to extract FUS R495X from granules”.

Regarding `COCCC(NC(=O)C(C)NC(=O)C(NC(=O)C(NC(=O)C(F)CC(C)(C)C)C(C)(C)O)C(C)c1ccccc1)C(=O)N(C)Cc1ccccc1` (stereo not drawn) [G3Ia′], in assay [1], the IC50 was over 50 µM and the “displacement” value is on record as “little effect”. The stress granule formation result in assay [2] is given as “not significantly altered”. Also, in assay [3], the G3BP1 puncta eliminated amounted to 6% and the “reduction in number of puncta positive for FUS R495X” value was 4%.

`CC(NC(=O)C(NC(=O)C(NC(=O)CCC(C)(C)C)C(C)(C)O)C(C)c1ccccc1)C(=O)N1CCCC1c1ccccc1` (stereo not drawn) [G3Ib]: in assay [1], the IC50 stood at 0.7 µM and the “displacement” value was “potently displaced”. In assay [2] (5 μM), the “reduction of total stress granule area” value is about 50%. The “reduction of total stress granule area” value in assay [2] (20 μM) was about 85%. Further, in assay [2] (50 μM), the “reduction of stress granule formation compared with inactive enantiomer” value is about 94% and the “reduction of total stress granule area” value is about 93%. Also, in assay [3], the “extraction of FUS R495X from granules” value is given as “unable to extract FUS R495X from granules”.

Turning to `CC(NC(=O)C(NC(=O)C(NC(=O)CCC(C)(C)C)C(C)(C)O)C(C)c1ccccc1)C(=O)N1CCCC1c1ccccc1` (stereo not drawn) [G3Ib′], in assay [1], the IC50 is over 50 µM and the “displacement” value was “little effect”. Moreover, in assay [2], the stress granule formation entry was “not significantly altered”.
